This note sets out measurements from patent US7998940B2, “Aptamers to von Willebrand factor and their use as thrombotic disease therapeutics” (Archemix Corp., priority 2004, dated 2011).

Like-named read-outs stand apart in the source and are kept apart here. Oligonucleotides are written 5' to 3', each unit as a sugar letter and its base; * is a phosphorothioate linkage, no mark a phosphodiester; rarer units and linkages stand in square brackets, end groups in braces. Plain capitals give the bases only. [invdT] = inverted (3'-3') thymidine; d = 2'-deoxy (DNA); m = 2'-O-methyl

The subject of this data set is full length human vWF (SEQ ID NO 7). Description: dot blot KD determination and extent of binding, full length human vWF.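 For all read-outs here: dot blot binding of aptamers to full length human vWF across a protein titration, incubated 30 minutes at room temperature in 1x DPBS with BSA.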 The following applies: for % binding @ 100 nM vWF: extent of aptamer binding at 100 nM full length human vWF; for Kd: full length human vWF, read-out: KD.
Where [1] appears, read: Phase 1 modification, dot blot, 8 point protein titration.
Setting [2] is: Phase 3 modification, dot blot, 8 point protein titration.

By Kd is commonly meant the equilibrium constant for the complex coming apart. As for “ARC1234: ARC1172 with one residue replaced by 2'-O methyl residue (dGdGdCdGdTdGdCdAdGdTdGdCdCdTdTdCdGdGdCdCdGdTdGdCdGdGdTdGdCdCdTdCdCdGdTdCdAdCdGdCmC[invdT]; aptamer)”, under “Phase 1 modification”, the “% binding @ 100 nM vWF” value worked out at 42%. For the same substance, the Kd under setting [1] stood at 2 nM.

“ARC1235: ARC1172 with composite 2'-O methyl replacements in the stem regions (mGmGdCmGdTmGdCdAdGdTdGdCdCdTdTdCdGdGdCdCdGdTdGdCdGdGdTdGdCdCdTdCdCdGdTdCmAdCmGdCdC[invdT]; aptamer)”: the “% binding @ 100 nM vWF” value (Phase 1 modification) amounted to 23%. Moreover, the Kd under setting [1] was 13 nM.

“ARC1236: ARC1172 with composite 2'-O methyl replacements in the stem regions (dGdGmCdGmUdGdCdAdGdTdGdCdCdTdTdCdGdGdCdCdGdTdGdCdGdGdTdGdCdCdTdCdCdGdTmCdAmCdGmCmC[invdT]; aptamer)”: the “% binding @ 100 nM vWF” value (Phase 1 modification) is 32%. Under setting [1], the Kd stood at 3 nM.

Regarding “ARC1237: ARC1172 with composite 2'-O methyl replacements in the stem regions (mGmGmCmGmUmGdCdAdGdTdGdCdCdTdTdCdGdGdCdCdGdTdGdCdGdGdTdGdCdCdTdCdCdGdTmCmAmCmGmCmC[invdT]; aptamer)”, where the note is “Phase 1 modification”, the “% binding @ 100 nM vWF” value is given as 9%. Besides, the Kd under setting [1] was 41 nM.

Turning to “ARC1238: ARC1172 with composite 2'-O methyl replacements in the stem regions (dGdGdCdGdTdGdCdAdGdTmGdCdCdTdTdCmGmGdCdCdGdTdGdCdGdGdTdGdCdCdTdCdCdGdTdCdAdCdGdCdC[invdT]; aptamer)”, under “Phase 1 modification”, the “% binding @ 100 nM vWF” value was 43%. Further, under setting [1], the Kd came to 2 nM.

For “ARC1239: ARC1172 with composite 2'-O methyl replacements in the stem regions (dGdGdCdGdTdGdCdAdGdTdGmCmCdTdTdCdGdGmCdCdGdTdGdCdGdGdTdGdCdCdTdCdCdGdTdCdAdCdGdCdC[invdT]; aptamer)”, the “% binding @ 100 nM vWF” value (Phase 1 modification) amounted to 37%. The Kd under setting [1] worked out at 5 nM.

In the case of “ARC1240: ARC1172 with composite 2'-O methyl replacements in the stem regions (dGdGdCdGdTdGdCdAdGdTmGmCmCdTdTdCmGmGmCdCdGdTdGdCdGdGdTdGdCdCdTdCdCdGdTdCdAdCdGdCdC[invdT]; aptamer)”, the “% binding @ 100 nM vWF” value (Phase 1 modification) was 40%. The Kd under setting [1] is 4 nM.

Consider “ARC1361: ARC1346 with a mC to dC modification at position 36 (mGmCmGmUdGdCdAmGmUmGmCmCmUmUmCmGmGmCdCmGdTmGdCdGdGdTmGmCdCmUdCdCmGmUdCmAmCmGmC[invdT])”, for which, for the setting “Phase 3 modification”, the “% binding @ 100 nM vWF” value was found to be 38.5%. Besides, the Kd under setting [2] was 7.9 nM.

As for “ARC1362: ARC1361 with single phosphorothioate phosphate backbone modification (mGmCmGmU*dGdCdAmGmUmGmCmCmUmUmCmGmGmCdCmGdTmGdCdGdGdTmGmCdCmUdCdCmGmUdCmAmCmGmC[invdT])”, for the setting “Phase 3 modification”, the “% binding @ 100 nM vWF” value came to 34.3%. Besides, the Kd under setting [2] came out at 9.9 nM.

As for “ARC1363: ARC1361 with single phosphorothioate phosphate backbone modification (mGmCmGmUdG*dCdAmGmUmGmCmCmUmUmCmGmGmCdCmGdTmGdCdGdGdTmGmCdCmUdCdCmGmUdCmAmCmGmC[invdT]; aptamer)”, the “% binding @ 100 nM vWF” value (Phase 3 modification) came to 32.7%. Under setting [2], the Kd came to 12.7 nM.

On to “ARC1364: ARC1361 with single phosphorothioate phosphate backbone modification (mGmCmGmUdGdC*dAmGmUmGmCmCmUmUmCmGmGmCdCmGdTmGdCdGdGdTmGmCdCmUdCdCmGmUdCmAmCmGmC[invdT]; aptamer)”, for which the “% binding @ 100 nM vWF” value (Phase 3 modification) is given as 36.9%. Also, the Kd under setting [2] turned out to be 8.2 nM.

For the substance “ARC1365: ARC1361 with single phosphorothioate phosphate backbone modification (mGmCmGmUdGdCdA*mGmUmGmCmCmUmUmCmGmGmCdCmGdTmGdCdGdGdTmGmCdCmUdCdCmGmUdCmAmCmGmC[invdT]; aptamer)”, the “% binding @ 100 nM vWF” value (Phase 3 modification) is on record as 35.4%. Besides, the Kd under setting [2] is 10.8 nM.

On to “ARC1366: ARC1361 with single phosphorothioate phosphate backbone modification (mGmCmGmUdGdCdAmGmUmGmCmCmUmUmCmGmGmC*dCmGdTmGdCdGdGdTmGmCdCmUdCdCmGmUdCmAmCmGmC[invdT]; aptamer)”, for which the “% binding @ 100 nM vWF” value (Phase 3 modification) came to 28.9%. The Kd under setting [2] is 15.5 nM.

On to “ARC1367: ARC1361 with single phosphorothioate phosphate backbone modification (mGmCmGmUdGdCdAmGmUmGmCmCmUmUmCmGmGmCdC*mGdTmGdCdGdGdTmGmCdCmUdCdCmGmUdCmAmCmGmC[invdT]; aptamer)”, for which the “% binding @ 100 nM vWF” value (Phase 3 modification) came out at 30.4%. For the same substance, the Kd under setting [2] turned out to be 13.9 nM.

As to “ARC1369: ARC1361 with single phosphorothioate phosphate backbone modification (mGmCmGmUdGdCdAmGmUmGmCmCmUmUmCmGmGmCdCmGdT*mGdCdGdGdTmGmCdCmUdCdCmGmUdCmAmCmGmC[invdT]; aptamer)”, under “Phase 3 modification”, the “% binding @ 100 nM vWF” value worked out at 26.2%. The Kd under setting [2] is 16.3 nM.

Consider “ARC1370: ARC1361 with single phosphorothioate phosphate backbone modification (mGmCmGmUdGdCdAmGmUmGmCmCmUmUmCmGmGmCdCmGdTmG*dCdGdGdTmGmCdCmUdCdCmGmUdCmAmCmGmC[invdT]; aptamer)”, for which the “% binding @ 100 nM vWF” value (Phase 3 modification) worked out at 22.5%. For the same substance, under setting [2], the Kd is 10.1 nM.

“ARC1371: ARC1361 with single phosphorothioate phosphate backbone modification (mGmCmGmUdGdCdAmGmUmGmCmCmUmUmCmGmGmCdCmGdTmGdC*dGdGdTmGmCdCmUdCdCmGmUdCmAmCmGmC[invdT])”: the “% binding @ 100 nM vWF” value (Phase 3 modification) amounted to 32.1%. The Kd under setting [2] is 8.4 nM.

As for “ARC1372: ARC1361 with single phosphorothioate phosphate backbone modification (mGmCmGmUdGdCdAmGmUmGmCmCmUmUmCmGmGmCdCmGdTmGdCdG*dGdTmGmCdCmUdCdCmGmUdCmAmCmGmC[invdT]; aptamer)”, where the note is “Phase 3 modification”, the “% binding @ 100 nM vWF” value worked out at 35.2%. In addition, under setting [2], the dissociation constant Kd was found to be 23.5 nM.

In the case of “ARC1373: ARC1361 with single phosphorothioate phosphate backbone modification (mGmCmGmUdGdCdAmGmUmGmCmCmUmUmCmGmGmCdCmGdTmGdCdGdG*dTmGmCdCmUdCdCmGmUdCmAmCmGmC[invdT]; aptamer)”, for the setting “Phase 3 modification”, the “% binding @ 100 nM vWF” value was 33.0%. In addition, the Kd under setting [2] turned out to be 7.1 nM.

For “ARC1374: ARC1361 with single phosphorothioate phosphate backbone modification (mGmCmGmUdGdCdAmGmUmGmCmCmUmUmCmGmGmCdCmGdTmGdCdGdGdT*mGmCdCmUdCdCmGmUdCmAmCmGmC[invdT]; aptamer)”, for the setting “Phase 3 modification”, the “% binding @ 100 nM vWF” value was 27.2%. Also, the Kd under setting [2] is 9.5 nM.

As to “ARC1375: ARC1361 with single phosphorothioate phosphate backbone modification (mGmCmGmUdGdCdAmGmUmGmCmCmUmUmCmGmGmCdCmGdTmGdCdGdGdTmGmC*dCmUdCdCmGmUdCmAmCmGmC[invdT]; aptamer)”, the “% binding @ 100 nM vWF” value (Phase 3 modification) is given as 25.5%. Under setting [2], the Kd was 8.8 nM.

For “ARC1376: ARC1361 with single phosphorothioate phosphate backbone modification (mGmCmGmUdGdCdAmGmUmGmCmCmUmUmCmGmGmCdCmGdTmGdCdGdGdTmGmCdC*mUdCdCmGmUdCmAmCmGmC[invdT]; aptamer)”, the “% binding @ 100 nM vWF” value (Phase 3 modification) worked out at 31.3%. For the same substance, the Kd under setting [2] was 4.4 nM.

On to “ARC1377: ARC1361 with single phosphorothioate phosphate backbone modification (mGmCmGmUdGdCdAmGmUmGmCmCmUmUmCmGmGmCdCmGdTmGdCdGdGdTmGmCdCmU*dCdCmGmUdCmAmCmGmC[invdT]; aptamer)”, for which the “% binding @ 100 nM vWF” value (Phase 3 modification) is 30.9%. Besides, under setting [2], the Kd amounted to 7.4 nM.

Regarding “ARC1378: ARC1361 with single phosphorothioate phosphate backbone modification (mGmCmGmUdGdCdAmGmUmGmCmCmUmUmCmGmGmCdCmGdTmGdCdGdGdTmGmCdCmUdC*dCmGmUdCmAmCmGmC[invdT]; aptamer)”, for the setting “Phase 3 modification”, the “% binding @ 100 nM vWF” value turned out to be 31.1%. For the same substance, the Kd under setting [2] turned out to be 9.1 nM.

Consider “ARC1379: ARC1361 with single phosphorothioate phosphate backbone modification (mGmCmGmUdGdCdAmGmUmGmCmCmUmUmCmGmGmCdCmGdTmGdCdGdGdTmGmCdCmUdCdC*mGmUdCmAmCmGmC[invdT]; aptamer)”, for which, where the note is “Phase 3 modification”, the “% binding @ 100 nM vWF” value is given as 31.3%. Further, the Kd under setting [2] worked out at 10.4 nM.

Consider “ARC1380: ARC1361 with single phosphorothioate phosphate backbone modification (mGmCmGmUdGdCdAmGmUmGmCmCmUmUmCmGmGmCdCmGdTmGdCdGdGdTmGmCdCmUdCdCmGmU*dCmAmCmGmC[invdT])”, for which, under “Phase 3 modification”, the “% binding @ 100 nM vWF” value is reported as 32.5%. The equilibrium dissociation constant (Kd) under setting [2] stood at 12 nM.

With “ARC1381: ARC1361 with single phosphorothioate phosphate backbone modification (mGmCmGmUdGdCdAmGmUmGmCmCmUmUmCmGmGmCdCmGdTmGdCdGdGdTmGmCdCmUdCdCmGmUdC*mAmCmGmC[invdT])”, the “% binding @ 100 nM vWF” value (Phase 3 modification) came to 35.8%. Further, the Kd under setting [2] was found to be 8.7 nM.

As to “dGdGdCdGTdGdCdAdGTdGdCdCTTdCdGdGdCdCdG-s-TdGdCdGdGTdGdCdCTdCdCdGTdCdAdCdGdCdC-3T (dGdGdCdGdTdGdCdAdGdTdGdCdCdTdTdCdGdGdCdCdG*dTdGdCdGdGdTdGdCdCdTdCdCdGdTdCdAdCdGdCdC[invdT]) [ARC1759]”, where the note is “Phase 4 and 5 modification”, the “% binding @ 100 nM vWF” value was 46% and the Kd was found to be 0.7 nM. Further, the “binding to human vWF” value (in words, dot blot) is “measurable improvement in affinity relative to ARC1172”.
